Source: patent US20180185448A1, “COMPOSITION AND METHOD FOR INDUCING ANTI-INFLAMMATORY RESPONSE” (Vital Therapies, Inc., priority 2015, published 2018)
“Also recorded” adds a separate entry of the source.

Key:
monolayer C3A cells [1] = experiment: Monolayer C3A cells incubated with inflammatory cytokines (IL-6, IL-1β, TNF-α); secreted factors assayed in conditioned media by ELISA/multiplex; type: cell-based, human; details: for AAT secretion at 54 h: 54 h compared with 24 h; for TNF-α secretion: 24 and 48 h; for IL-10 secretion / IL-10 secretion at 48 hr: 10 ng/mL; for IL-10 secretion: 24 h vs controls; for IL-10 secretion at 48 hr: 48 hr compared with 24 h
Method: (§1) Conditioned media from C3A cells of an active cartridge of a treatment system of the disclosure were assayed for APP, cytokines, and other mediators that affect inflammation using singleplex ELISA kits (R&D Systems, abcam), chemiluminescent multiplex array kits (Aushon) and/or contracted services (Myriad Rules Based Medicine). Inflammatory cytokines reported to be present in hepatitis patient serum (IL-6 [0, 1, 10, 100 ng/mL]±IL-1β [0, 1, 10, 100 ng/mL]) were incubated with monolayer, or C3A cells recovered from the treatment system, for 24 or 54 h, and conditioned media were assayed for the APP IL-1 receptor antagonist (IL-1Ra), alpha-1-antitrypsin (AAT), and albumin. Lipopolysaccharide (LPS) (0, 0.01, 0.1, 1, 10 EU/mL) was incubated with monolayer C3A cells for 24 h and assayed for APP.
Conditioned media from active cartridges including qualified C3A cells were assayed for APP, cytokines, and other mediators that affect inflammation. Inflammatory cytokines present in patient serum (IL-6±IL-1β) were incubated with monolayer, or C3A cells recovered from the system, for 24 or 54 h and media assayed for IL-1 receptor antagonist (IL-1Ra) and alpha-1-antitrypsin (AAT).
(§2) C3A cells of the invention were plated in monolayer and incubated with LPS or with inflammatory cytokines (IL-6, IL-1β, and/or TNF-α) for 24, 48, or 54 h. Cytokines were dosed individually or in combination at 0, 1, 10, or 100 ng/mL as indicated in each figure. Separate C3A cells were incubated with LPS at 0, 0.01, 0.1, 1, or 10 EU/mL for 24 h.
(§3) Additionally, intact C3A tissue (C3A cells cultured three-dimensionally between polysulfone hollow fibers) was excised from C3A cell cartridges and dosed in conjunction with 10 ng/mL IL-1β and 10 ng/mL IL-6 for 24 h. The supernatants from these monolayer C3A cell and ELAD C3A tissue experiments were assayed for IL-1Ra, AAT, IL-10, or albumin via in-house and commercial ELISA kits (R&D Systems, abcam), contracted services for multiplex ELISAs (Myriad), or chemiluminescent multiplex assay kits (Aushon).

monolayer C3A cells [2] = experiment: Monolayer C3A cells incubated with LPS for 24 h; IL-1Ra and AAT assayed in media; type: cell-based, human
Method: as §1, §2, §3

[3] = Example 1, monolayer C3A cultures
[4] = Example 3, monolayer C3A cells 1.3×10^5 cells/cm, 24 and 54 h, n=3
[5] = Examples 1-2, monolayer C3A cells, 24 h, single replicates of pooled triplicate wells
[6] = Examples 1-2, monolayer C3A cells
[7] = FIG. 18 experiment, monolayer C3A cells 2.6×10^5 cells/cm^2, TNF-α 1, 10 or 100 ng/mL, IL-1β 10 ng/mL
[8] = monolayer C3A cells 2.6×10^5 cells/cm^2
[9] = monolayer C3A cells, IL-6 ± IL-1β 1-100 ng/mL, 24 h (or time not stated)
[10] = Example 3, monolayer C3A cells 1.3×10^5 cells/cm^2
[11] = Example 3, monolayer, 24, 48 hr
[12] = Example 3, monolayer, 24 hr, 48 hr

Interleukin-1 beta [IL-1β] was tested, and the G-CSF increase (monolayer C3A cells [1]; [3]) was 50 fold, the IL-8 increase (monolayer C3A cells [1]; [3]) was 2,000 fold and the SCF increase (monolayer C3A cells [1]; [3]) was 100 fold. The TNFα increase (monolayer C3A cells [1]; [3]) was 25 fold, the AAT secretion (monolayer C3A cells [1]; [4]) was “no apparent effect; also recorded: not affected” and the “IL-6-induced fibrinogen expression on addition of IL-1β” value (monolayer C3A cells [1]; Example 3, monolayer C3A cells, IL-1β added to IL-6) was “abrogated”. For the same substance, the AAT secretion (monolayer C3A cells [1]; [5]) was “dose-dependent upregulation; also recorded: upregulated”, the AAT secretion (monolayer C3A cells [1]; Examples 1-2, monolayer C3A cells, 24 h, single replicates of pooled triplicate wells, listed as IL-1 β) was “dose-dependent up-regulation” and the “AAT secretion at 54 h” value (monolayer C3A cells [1]; [6]) was “further increased; also recorded: increases with exposure time”. The “AAT secretion at 54 h” value (monolayer C3A cells [1]; Examples 1-2, monolayer C3A cells, listed as IL-1 β) was “further increased”, the IL-1Ra secretion (monolayer C3A cells [1]; [7]) was “increased; also recorded: upregulated” and the TNF-α secretion (monolayer C3A cells [1]; [8]) was “upregulated; also recorded: low, yet elevated”. For the same substance, the IL-10 secretion (monolayer C3A cells [1]; monolayer C3A cells) was “increased above the controls; also recorded: upregulated”, the “IL-10 secretion at 48 hr” value (monolayer C3A cells [1]; monolayer C3A cells) was “further increased” and the IL-1Ra secretion (monolayer C3A cells [1]; [9]) was “did not increase”.
Interleukin-6 [IL-6] showed an IL-10 increase (monolayer C3A cells [1]; [3]) of 10 fold, an IL-18 increase (monolayer C3A cells [1]; [3]) of 9 fold and an MCP-1 increase (monolayer C3A cells [1]; [3]) of 15 fold. For the same substance, the TNF-β increase (monolayer C3A cells [1]; [3]) was 12 fold, the fibrinogen increase (monolayer C3A cells [1]; [3]) was 6 fold and the AAT secretion (monolayer C3A cells [1]; [4]) was “no apparent effect; also recorded: not affected”. For the same substance, the fibrinogen secretion (monolayer C3A cells [1]; [10]) was “increased”, the α-2 macroglobulin secretion (monolayer C3A cells [1]; [10]) was “increased; also recorded: modestly upreguated” and the “Fibrinogen increase vs. control” value (monolayer C3A cells [1]; [11]) was about 6 fold. The “IL-18 increase vs. control” value (monolayer C3A cells [1]; [11]) was about 9 fold, the “Monocyte chemotactic protein 1 (MCP-1) increase vs. control” value (monolayer C3A cells [1]; [11]) was about 15 fold and the “TNF-β increase vs. control” value (monolayer C3A cells [1]; [11]) was about 12 fold. The “Granulocyte-colony stimulating factor (G-CSF) increase vs. control” value (monolayer C3A cells [1]; Example 3, monolayer, 24 hr) was about 50 fold, the “IL-7 increase vs. control” value (monolayer C3A cells [1]; Example 3, monolayer, 24 hr) was about 10 fold and the “IL-10 increase vs. control” value (monolayer C3A cells [1]; Example 3, monolayer, 24 hr) was about 10 fold. The “IL-8 increase vs. control” value (monolayer C3A cells [1]; [12]) was ~2,000 fold, the “Stem cell factor (SCF) increase vs. control” value (monolayer C3A cells [1]; [12]) was about 100 fold and the “TNFα increase vs. control” value (monolayer C3A cells [1]; [12]) was about 25 fold. For the same substance, the “Granulocyte-colony stimulating factor (G-CSF) increase vs. control” value (monolayer C3A cells [1]; Example 3, monolayer, 48 hr) was about 75 fold, the “IL-7 increase vs. control” value (monolayer C3A cells [1]; Example 3, monolayer, 48 hr) was about 14 fold and the “Granulocyte-colony stimulating factor (G-CSF) increase with IL-6 vs. control” value (monolayer C3A cells [1]; Example 3, monolayer, 24 hr) was about 300 fold. For the same substance, the “Granulocyte-colony stimulating factor (G-CSF) increase with IL-6 vs. control” value (monolayer C3A cells [1]; Example 3, monolayer, 48 hr) was about 500 fold, the AAT secretion (monolayer C3A cells [1]; [5]) was “dose-dependent upregulation; also recorded: upregulated; also recorded: dose-dependent up-regulation” and the “AAT secretion at 54 h” value (monolayer C3A cells [1]; [6]) was “further increased; also recorded: increases with exposure time”. For the same substance, the TNF-α secretion (monolayer C3A cells [1]; [8]) was “upregulated; also recorded: low, yet elevated”, the IL-10 secretion (monolayer C3A cells [1]; monolayer C3A cells) was “increased above the controls; also recorded: upregulated” and the “IL-10 secretion at 48 hr” value (monolayer C3A cells [1]; monolayer C3A cells) was “further increased”. The IL-1Ra secretion (monolayer C3A cells [1]; [9]) was “did not increase”.
For TNF-α, the “IL-1Ra secretion at the highest dose” value (monolayer C3A cells [1]; FIG. 18 experiment, TNF-α 100 ng/mL) was “observed decrease”, the IL-1Ra secretion (monolayer C3A cells [1]; [7]) was “did not increase; also recorded: not TNF-α alone” and the APP expression (monolayer C3A cells [1]; TNF-α, except when dosed 10,000-fold higher than measured in culture) was “did not significantly impact”.
lipopolysaccharide [LPS] was tested, and the IL-1Ra secretion (monolayer C3A cells [2]; LPS 0.01, 0.1, 1, 10 EU/mL) was “increased; also recorded: upregulated”, the AAT levels (monolayer C3A cells [2]; LPS 0.01-10 EU/mL, higher concentrations = 1 and 10 EU/mL) was “upregulated; also recorded: increased only at higher concentrations” and the IL-1Ra secretion increase (monolayer C3A cells [2]; LPS at all concentrations evaluated (0.01, 0.1, 1, and 10 EU/mL)) was “approximately 2 fold”.
